63 molecules from a melting point compilation (Tetko et al.; mined from patent text by program, amines drawn as free bases though some values may be those of a salt) can be followed below.

The term melting point denotes the temperature, or range, at which the solid turns liquid. `CNC(=O)NCCN1CCC(Nc2nc3ccccc3n2Cc2ccc(C)o2)CC1` showed a melting point of 200 °C.

`CCOC(=O)CCC(S)COC(=O)C1=C(C)NC(C)=C([N+](=O)[O-])C1c1ccccc1OCc1ccccc1` (stereo not drawn) returned a melting point of 133 °C.

Take `CNC(=S)N(C)Cc1ccc(Br)nc1`: the melting point lay within 107 to 108 °C.

As for `Cn1c(C(N)=O)nc([N+](=O)[O-])c1C#N`, the melting point was 265 to 267 °C.

`NS(=O)(=O)c1ccc(-c2[nH]c3ccccc3c2-c2ccccc2)cc1` came in with a melting point of 231 to 232 °C.

The molecule `O=C(Oc1ccc(Oc2ccccc2)cc1)c1ccc(C(=O)Oc2ccc(Oc3ccccc3)cc2)cc1` had a melting point of 193 to 194 °C.

Take `Clc1cc(Cl)c2cccc3c2c1N=C3NCCCCCCCCCCn1ccnc1`: the melting point was in the range of 129 to 131 °C.

For the molecule `N#Cc1ccccc1/C=C/C=O`, the melting point was 107 to 110 °C.

Regarding `CCOP(=O)(OCC)C(CCC(C(N)=O)P(=O)(OCC)OCC)C(N)=O` (stereo not drawn), the melting point lay in the range of 232 to 234 °C.

In the case of `COC(=O)c1cn(-c2ccc3ccccc3c2)cn1`, the melting point is 143 to 144 °C.

Molecule `COCC(=O)N(c1c(C)ccc(Cl)c1C)C1CCOC1=O` (stereo not drawn) had a melting point of 80 to 82 °C.

As for `CCc1ccc(CC2CNC(=O)O2)cc1` (stereo not drawn), the melting point was in the range of 133 to 134 °C.

Molecule `COC(=O)C1=C(N)C(C)SC1` (stereo not drawn) came in with a melting point of 60 °C.

In the case of `C[C@H]1[C@@H](O)[C@H](Cc2ccccc2)C(=O)N1c1ccc(C#N)c(Cl)c1`, the melting point was in the range of 99 to 101 °C.

For `Nc1ccc(S(=O)(=O)N2CCCC(c3ccc(Cl)c(C(F)(F)F)c3)=N2)cc1`, the melting point was 205 to 206 °C.

With `COC(c1nnco1)c1ccccc1COc1ccc(Cl)cc1C` (stereo not drawn), the melting point is 68 to 70 °C.

As for `C[C@@H](F)c1nc(N)nc(N[C@H]2c3ccccc3C[C@@H]2C)n1`, the melting point lay within 146 to 150 °C.

With `N#CSc1ccc(N)c([N+](=O)[O-])c1`, the melting point lay within 110 to 112 °C.

Take `Cc1cccc2c1C=Cc1ccccc1C2(O)CCCN(C)C` (stereo not drawn): the melting point was in the range of 141 to 143 °C.

`O=C(NC(Cc1ccccc1)C(=O)O)c1ccc(-c2ccccc2OC2OC(CO)C(O)C(O)C2O)cc1` (stereo not drawn) returned a melting point of 116 to 119 °C.

As for `COC(=O)Nc1c(C#N)cnn1-c1ccc(Cl)c(Cl)c1Cl`, the melting point is 205 to 207 °C.

In turn, `CCn1c(=O)n(CC)c2cc3c(N4CCN(C(=O)Nc5ccc(Oc6ccccc6)cc5)CC4)ncnc3cc21` displayed a melting point of 168 to 169 °C.

In turn, `CS(=O)(=O)c1ccc(-c2c(-c3ccc(F)cc3)c(OCC(=O)c3ccccc3)nn2CC(=O)c2ccccc2)cc1` gave a melting point of 151 to 152 °C.

Molecule `Cc1cccc(C)c1OCC(=O)NC(C)C(N)=O` (stereo not drawn) displayed a melting point of 177 to 178 °C.

Molecule `CC(C)n1nc(-c2c(Cl)nc(N)nc2-c2ccccc2)ccc1=O` came in with a melting point of 235 to 237 °C.

For `COc1ccccc1NC(C)C(=O)O` (stereo not drawn), the melting point fell in the range of 205 to 208 °C.

In the case of `O=C(O)[C@H]1CCCN1C(=O)C(F)(F)F`, the melting point fell in the range of 48 to 51 °C.

Regarding `CCOC(=O)C(c1ccc(Nc2nc(-c3cccc(NC(=O)c4cc5c(s4)CCCCC5)c3C)cn(C)c2=O)cc1)N1CCN(CC)CC1` (stereo not drawn), the melting point lay within 168 to 170 °C.

For the molecule `Clc1cnc(N2CCNCC2)cn1`, the melting point fell in the range of 98 to 102 °C.

Regarding `C=CCn1c(N)cc(=O)n1-c1ccccc1`, the melting point was in the range of 184 to 185 °C.

Molecule `COc1cc2c(c(Cl)c1Cl)C1=CC(=O)CCC1(CCCCl)C2` (stereo not drawn) gave a melting point of 183 to 185 °C.

Turning to `O=C1NC(=O)c2c1cc1ccc3c(c1c2-c1ccc(C(F)(F)F)cc1)OCO3`, the melting point fell in the range of 304 to 306 °C.

With `COc1cc(CC(=O)NCCOCc2ccc(C)c(C)c2)ccc1OCCN`, the melting point was 60 to 62 °C.

In the case of `CC1=CCC2(C)C(CCC3C4CCC(=O)C4(C)CCC32)C1` (stereo not drawn), the melting point was 124 to 126 °C.

`COc1cc(C=O)cc(Cl)c1OCCBr` came in with a melting point of 52 to 54 °C.

In turn, `COc1cc(OC)c(NC(=O)C(c2ccccc2)n2nnc(C(c3ccccc3)c3ccccc3)n2)c(OC)c1` (stereo not drawn) gave a melting point of 114 to 117 °C.

Take `Cc1cc(-c2ccc(Cl)cc2)nnc1Cl`: the melting point lay within 230 to 233 °C.

On to `CC1(C)SC(c2ccc([N+](=O)[O-])o2)NC1C(=O)O` (stereo not drawn), for which the melting point is 147 to 148 °C.

Molecule `CN1CC(CNC(=S)NC(=O)c2ccccc2)CC2c3cccc4[nH]cc(c34)CC21` (stereo not drawn) had a melting point of 153 to 155 °C.

In turn, `Cc1cc2c(c(C3=NNC(=O)CC3C)c1)OCC(=O)N2` (stereo not drawn) displayed a melting point of 252 to 254 °C.

With `COc1ccc(CNc2nc(N3CCCC3CO)nnc2C(=O)NCc2ncccn2)cc1Cl` (stereo not drawn), the melting point was 170 to 173 °C.

For the molecule `CCN(CC)S(=O)(=O)N1CCNC1=O`, the melting point was in the range of 80 to 82 °C.

`Cn1c(=O)cc(-c2ccccc2)c2cc(C(c3ccc(Cl)cc3)n3ccnc3)ccc21` (stereo not drawn): the melting point was found to be 155 °C.

As to `CC(=O)Nc1ccc(-c2nc(C(=O)Nc3nccs3)c(-c3ccccc3C)[nH]2)cc1`, the melting point was 269 to 271 °C.

`CN(C)S(=O)(=O)c1ccc(-c2ccc(-c3ccc(S(=O)(=O)N(C)C)c(S)c3)cc2)cc1S`: the melting point came out at 194 °C.

For the molecule `C=C1C(C(=O)c2ccccc2)CC(O[Si](c2ccccc2)(c2ccccc2)C(C)(C)C)C1COC(c1ccccc1)(c1ccccc1)c1ccccc1` (stereo not drawn), the melting point fell in the range of 142 to 144 °C.

As to `COc1ccccc1Oc1c(NS(=O)(=O)c2ccc(C(C)(C)C)cc2)nc(-c2ncccn2)nc1OCCOc1ccc(Br)cc1`, the melting point lay within 251 to 256 °C.

With `COCCNC(=O)c1ccnc(-c2cccc3cc(Cc4cccc(C(F)(F)F)c4)sc23)c1`, the melting point lay in the range of 108 to 109 °C.

In turn, `CC(=O)c1ccc(-c2coc3ccc(-c4nnc(C)o4)cc23)cc1` returned a melting point of 197 to 198 °C.

`COC(=O)c1sc2ccccc2c1OCC(C)=O`: the melting point was in the range of 57 to 58 °C.

Take `C[C@@H](n1cccn1)[C@](O)(Cn1ccnc1)c1ccc(F)cc1F`: the melting point was in the range of 142 to 143 °C.

As to `C=CCONC(=O)c1c(Cl)nn(C)c1Cl`, the melting point was 96 to 97 °C.

As to `O=C(NCc1ccccn1)Nc1cc(N2CC(Cc3ccccc3)OC2=O)ccn1` (stereo not drawn), the melting point is 191 to 193 °C.

Take `O=C(O)CSc1cc(-c2ccccc2)nc2ccccc12`: the melting point is 138 °C.

With `CN(C(=O)CN(C(=O)CNC(=O)Nc1cccc(CCO)c1)c1ccccc1)c1ccccc1`, the melting point worked out at 152 °C.

`CCOC(=O)Nc1nc(=O)c2cnn3c2n1CC=C3c1cccc(C(F)(F)F)c1`: the melting point was in the range of 219 to 220 °C.

As to `N#Cc1c(N)cccc1Sc1ccccc1`, the melting point is 73 to 77 °C.

Regarding `COc1ccc(NCC(=O)N2CCC(Oc3ccc(Cl)cc3)CC2)cc1`, the melting point is 127 to 130 °C.

In turn, `COCCNC(=O)c1ccc2c(c1)C(=NNc1ccc(S(N)(=O)=O)cc1)C(=O)N2` gave a melting point above 230 °C.

`CCCCCCCCCCCCCc1cc(C(=O)O)c[nH]1`: the melting point was in the range of 82 to 84 °C.

`C#CCOC(=O)c1cccnc1C1=NC(C)(C(C)C)C(=O)N1` (stereo not drawn) yielded a melting point of 188 to 190 °C.

Molecule `CCOC(=O)C1=C(C)NC(C)=C(C(=O)OCC)C1c1cccc(Br)c1` yielded a melting point of 125 to 126 °C.

With `O=C1NC2(CCCC2)CCCC1(Cl)Cl`, the melting point lay within 114 to 120 °C.
